# Key:
# Experiment in all cases: viability relative to DMSO control (fraction); higher = less drug effect (more viable cells)
# Conditions in all cases: 48 h
# [1] = test system: primary AML patient cells (S002)
# Outline: (§1)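 Compounds were pre-plated at five concentrations, one well each, in 384-well plates, and primary mononuclear tumour cells were plated on them at 4 × 10^4 cells per well. The cells, fresh or cryopreserved, had been Ficoll-isolated from blood or bone marrow or taken from processed lymph node. After 48 h at 37 °C and 5% CO2 in RPMI-1640 with penicillin/streptomycin, L-glutamine and human serum, viability was read as CellTiter-Glo luminescence relative to the median of 16 inner DMSO wells.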
# [2] = test system: primary AML patient cells (S009)
# Outline: as §1
# [3] = test system: primary AML patient cells (S011)
# Outline: as §1
# [4] = test system: primary AML patient cells (S012)
# Outline: as §1
# [5] = test system: primary AML patient cells (S017)
# Outline: as §1
# [6] = test system: primary AML patient cells (S019)
# Outline: as §1
# [7] = test system: primary AML patient cells (S021)
# Outline: as §1
# [8] = test system: primary AML patient cells (S025)
# Outline: as §1
# [9] = test system: primary AML patient cells (S037)
# Outline: as §1
# [10] = test system: primary AML patient cells (S081)
# Outline: as §1
# [11] = test system: primary AML patient cells (S085)
# Outline: as §1
# [12] = test system: primary AML patient cells (S091)
# Outline: as §1
# [13] = test system: primary B-PLL patient cells (S016)
# Outline: as §1
# [14] = test system: primary BL patient cells (S005)
# Outline: as §1
# [15] = test system: primary FL patient cells (S022)
# Outline: as §1
# [16] = test system: primary FL patient cells (S087)
# Outline: as §1
# [17] = test system: primary MCL patient cells (S041)
# Outline: as §1
# [18] = test system: primary MCL patient cells (S053)
# Outline: as §1
# [19] = test system: primary MCL patient cells (S068)
# Outline: as §1
# [20] = test system: primary T-PLL patient cells (S008)
# Outline: as §1
compound,measurement,setting,value
O=C(Nc1cccc(C(F)(F)F)c1)Nc1cc(S(=O)(=O)NC2CC2)ccc1-c1ccsc1 [AGI-6780],viability,[1]; 0.024 µM,0.785
same,viability,[1]; 0.12 µM,0.822
same,viability,[1]; 0.6 µM,0.816
same,viability,[1]; 3 µM,0.798
same,viability,[1]; 15 µM,0.689
same,viability,[2]; 0.024 µM,0.807
same,viability,[2]; 0.12 µM,0.796
same,viability,[2]; 0.6 µM,0.875
same,viability,[2]; 3 µM,0.834
same,viability,[2]; 15 µM,0.749
same,viability,[3]; 0.024 µM,0.76
same,viability,[3]; 0.12 µM,0.761
same,viability,[3]; 0.6 µM,0.802
same,viability,[3]; 3 µM,0.778
same,viability,[3]; 15 µM,0.666
same,viability,[4]; 0.024 µM,1.03
same,viability,[4]; 0.12 µM,1.01
same,viability,[4]; 0.6 µM,1
same,viability,[4]; 3 µM,0.941
same,viability,[4]; 15 µM,0.868
same,viability,[5]; 0.024 µM,0.881
same,viability,[5]; 0.12 µM,0.938
same,viability,[5]; 0.6 µM,0.919
same,viability,[5]; 3 µM,0.908
same,viability,[5]; 15 µM,0.982
same,viability,[6]; 0.024 µM,1.17
same,viability,[6]; 0.12 µM,1.26
same,viability,[6]; 0.6 µM,1.27
same,viability,[6]; 3 µM,1.13
same,viability,[6]; 15 µM,1.18
same,viability,[7]; 0.024 µM,0.881
same,viability,[7]; 0.12 µM,0.894
same,viability,[7]; 0.6 µM,0.878
same,viability,[7]; 3 µM,0.891
same,viability,[7]; 15 µM,0.676
same,viability,[8]; 0.024 µM,0.949
same,viability,[8]; 0.12 µM,1.06
same,viability,[8]; 0.6 µM,0.978
same,viability,[8]; 3 µM,0.905
same,viability,[8]; 15 µM,0.839
same,viability,[9]; 0.024 µM,0.971
same,viability,[9]; 0.12 µM,1.02
same,viability,[9]; 0.6 µM,0.955
same,viability,[9]; 3 µM,0.877
same,viability,[9]; 15 µM,0.889
same,viability,[10]; 0.024 µM,0.829
same,viability,[10]; 0.12 µM,0.956
same,viability,[10]; 0.6 µM,0.878
same,viability,[10]; 3 µM,0.756
same,viability,[10]; 15 µM,0.841
same,viability,[11]; 0.024 µM,0.793
same,viability,[11]; 0.12 µM,0.809
same,viability,[11]; 0.6 µM,0.734
same,viability,[11]; 3 µM,0.672
same,viability,[11]; 15 µM,0.691
same,viability,[12]; 0.024 µM,1.02
same,viability,[12]; 0.12 µM,1.05
same,viability,[12]; 0.6 µM,0.975
same,viability,[12]; 3 µM,0.989
same,viability,[12]; 15 µM,0.924
same,viability,[13]; 0.024 µM,0.776
same,viability,[13]; 0.12 µM,0.947
same,viability,[13]; 0.6 µM,0.954
same,viability,[13]; 3 µM,0.851
same,viability,[13]; 15 µM,0.981
same,viability,[14]; 0.024 µM,0.818
same,viability,[14]; 0.12 µM,0.915
same,viability,[14]; 0.6 µM,0.932
same,viability,[14]; 3 µM,0.778
same,viability,[14]; 15 µM,0.886
same,viability,[15]; 0.024 µM,0.826
same,viability,[15]; 0.12 µM,0.782
same,viability,[15]; 0.6 µM,0.821
same,viability,[15]; 3 µM,0.835
same,viability,[15]; 15 µM,0.775
same,viability,[16]; 0.024 µM,0.891
same,viability,[16]; 0.12 µM,0.944
same,viability,[16]; 0.6 µM,0.923
same,viability,[16]; 3 µM,0.906
same,viability,[16]; 15 µM,0.798
same,viability,[17]; 0.024 µM,0.913
same,viability,[17]; 0.12 µM,0.898
same,viability,[17]; 0.6 µM,0.856
same,viability,[17]; 3 µM,0.868
same,viability,[17]; 15 µM,0.806
same,viability,[18]; 0.024 µM,0.741
same,viability,[18]; 0.12 µM,0.807
same,viability,[18]; 0.6 µM,0.851
same,viability,[18]; 3 µM,0.788
same,viability,[18]; 15 µM,0.88
same,viability,[19]; 0.024 µM,0.751
same,viability,[19]; 0.12 µM,0.809
same,viability,[19]; 0.6 µM,0.786
same,viability,[19]; 3 µM,0.722
same,viability,[19]; 15 µM,0.798
same,viability,[20]; 0.024 µM,0.865
same,viability,[20]; 0.12 µM,0.979
same,viability,[20]; 0.6 µM,0.937
same,viability,[20]; 3 µM,0.863
same,viability,[20]; 15 µM,0.825

# Source: the supplement of paper PMC10733146
